The record followed here is paper PMC6199744, “Development of Chemical Proteomics for the Folateome and Analysis of the Kinetoplastid Folateome” (ACS Infectious Diseases, 2018).

What all share (assay type): binding
For assay [1], the target named is T1, HeLa cell extract proteins (Homo sapiens, UniProt Q05048).
T1 construct: endogenous in cells; host or cells: HeLa cell extract
T1 sequence (Q05048 1-431): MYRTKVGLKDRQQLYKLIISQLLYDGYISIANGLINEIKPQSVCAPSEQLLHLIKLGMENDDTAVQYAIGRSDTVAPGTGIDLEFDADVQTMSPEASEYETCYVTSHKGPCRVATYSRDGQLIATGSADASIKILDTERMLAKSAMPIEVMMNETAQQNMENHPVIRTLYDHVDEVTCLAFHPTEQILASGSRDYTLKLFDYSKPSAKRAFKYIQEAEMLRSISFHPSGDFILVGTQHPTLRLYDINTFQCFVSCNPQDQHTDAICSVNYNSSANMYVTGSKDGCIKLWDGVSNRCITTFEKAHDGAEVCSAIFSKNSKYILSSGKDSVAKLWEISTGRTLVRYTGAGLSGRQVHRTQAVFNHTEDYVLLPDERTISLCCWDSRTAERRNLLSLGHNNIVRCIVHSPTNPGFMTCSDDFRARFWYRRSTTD

In assay [2] the target is T2, HeLa cell extract proteins (Homo sapiens, UniProt P35232).
T2 construct: endogenous in cells; host or cells: HeLa cell extract
T2 sequence (P35232 1-272): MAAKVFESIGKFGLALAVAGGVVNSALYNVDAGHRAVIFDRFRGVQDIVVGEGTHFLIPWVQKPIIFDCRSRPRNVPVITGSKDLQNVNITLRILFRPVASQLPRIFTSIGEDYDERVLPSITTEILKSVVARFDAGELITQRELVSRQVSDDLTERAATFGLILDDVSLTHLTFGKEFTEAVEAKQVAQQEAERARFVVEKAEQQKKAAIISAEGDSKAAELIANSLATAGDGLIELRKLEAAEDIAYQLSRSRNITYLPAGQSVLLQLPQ

The target in assay [3] is T3, HeLa cell extract proteins (Homo sapiens, UniProt P28072).
T3 construct: endogenous in cells; host or cells: HeLa cell extract
T3 sequence (P28072 1-239): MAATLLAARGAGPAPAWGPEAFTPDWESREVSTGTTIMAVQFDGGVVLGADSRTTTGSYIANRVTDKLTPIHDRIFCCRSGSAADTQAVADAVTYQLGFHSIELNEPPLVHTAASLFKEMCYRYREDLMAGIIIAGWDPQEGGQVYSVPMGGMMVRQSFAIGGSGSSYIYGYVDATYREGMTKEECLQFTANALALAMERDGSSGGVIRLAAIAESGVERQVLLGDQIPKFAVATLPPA

The target in assay [4] is T4, HeLa cell extract proteins (Homo sapiens, UniProt P34932).
T4 construct: endogenous in cells; host or cells: HeLa cell extract
T4 sequence (P34932 whole entry): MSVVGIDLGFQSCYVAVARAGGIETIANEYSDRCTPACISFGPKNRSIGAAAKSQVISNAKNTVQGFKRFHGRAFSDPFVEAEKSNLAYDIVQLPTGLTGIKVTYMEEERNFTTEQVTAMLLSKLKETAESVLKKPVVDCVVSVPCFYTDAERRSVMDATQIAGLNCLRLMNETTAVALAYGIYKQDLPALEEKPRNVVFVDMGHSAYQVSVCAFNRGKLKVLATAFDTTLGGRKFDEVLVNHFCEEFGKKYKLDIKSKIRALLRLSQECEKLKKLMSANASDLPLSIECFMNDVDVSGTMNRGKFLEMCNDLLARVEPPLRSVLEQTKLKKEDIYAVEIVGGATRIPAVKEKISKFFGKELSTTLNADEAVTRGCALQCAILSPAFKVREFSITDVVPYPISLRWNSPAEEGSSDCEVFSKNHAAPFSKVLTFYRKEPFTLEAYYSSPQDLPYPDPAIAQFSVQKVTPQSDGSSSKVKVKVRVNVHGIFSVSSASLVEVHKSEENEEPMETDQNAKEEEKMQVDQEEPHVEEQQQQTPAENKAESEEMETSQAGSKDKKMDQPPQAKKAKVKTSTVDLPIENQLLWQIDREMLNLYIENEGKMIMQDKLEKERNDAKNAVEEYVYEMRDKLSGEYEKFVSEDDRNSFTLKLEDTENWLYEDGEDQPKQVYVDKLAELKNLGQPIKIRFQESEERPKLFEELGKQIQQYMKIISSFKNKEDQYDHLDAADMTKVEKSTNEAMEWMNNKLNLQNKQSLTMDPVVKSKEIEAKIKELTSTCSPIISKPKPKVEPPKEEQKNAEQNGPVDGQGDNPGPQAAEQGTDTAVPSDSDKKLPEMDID

Assay [5] addresses T5, HeLa cell extract proteins (Homo sapiens, UniProt Q9HA64).
T5 construct: endogenous in cells; host or cells: HeLa cell extract
T5 sequence (Q9HA64 1-309): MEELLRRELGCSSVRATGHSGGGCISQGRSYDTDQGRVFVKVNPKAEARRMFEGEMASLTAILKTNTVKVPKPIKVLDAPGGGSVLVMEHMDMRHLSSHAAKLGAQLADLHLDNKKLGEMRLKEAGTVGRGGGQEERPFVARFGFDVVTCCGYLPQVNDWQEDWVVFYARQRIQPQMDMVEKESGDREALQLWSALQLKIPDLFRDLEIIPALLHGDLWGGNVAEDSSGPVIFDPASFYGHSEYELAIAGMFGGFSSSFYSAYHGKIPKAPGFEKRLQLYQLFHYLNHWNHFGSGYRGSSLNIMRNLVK

In assay [6] the target is T6, HeLa cell extract proteins (Homo sapiens, UniProt P68104).
T6 construct: endogenous in cells; host or cells: HeLa cell extract
T6 sequence (P68104 1-462): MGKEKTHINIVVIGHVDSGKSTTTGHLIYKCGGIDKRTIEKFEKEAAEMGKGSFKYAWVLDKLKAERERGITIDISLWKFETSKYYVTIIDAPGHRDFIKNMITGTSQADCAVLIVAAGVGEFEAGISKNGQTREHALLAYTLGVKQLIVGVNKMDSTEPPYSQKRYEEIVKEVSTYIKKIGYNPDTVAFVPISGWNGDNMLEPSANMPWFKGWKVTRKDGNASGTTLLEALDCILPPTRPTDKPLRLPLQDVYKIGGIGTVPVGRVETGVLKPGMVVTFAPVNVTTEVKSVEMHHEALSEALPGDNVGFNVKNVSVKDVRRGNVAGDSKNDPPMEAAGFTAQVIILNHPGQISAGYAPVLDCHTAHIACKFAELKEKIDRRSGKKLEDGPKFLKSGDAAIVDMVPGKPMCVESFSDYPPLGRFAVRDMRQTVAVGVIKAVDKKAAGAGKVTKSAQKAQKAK

Assay [7] deals with T7, HeLa cell extract proteins (Homo sapiens, UniProt Q15008).
T7 construct: endogenous in cells; host or cells: HeLa cell extract
T7 sequence (Q15008 1-389): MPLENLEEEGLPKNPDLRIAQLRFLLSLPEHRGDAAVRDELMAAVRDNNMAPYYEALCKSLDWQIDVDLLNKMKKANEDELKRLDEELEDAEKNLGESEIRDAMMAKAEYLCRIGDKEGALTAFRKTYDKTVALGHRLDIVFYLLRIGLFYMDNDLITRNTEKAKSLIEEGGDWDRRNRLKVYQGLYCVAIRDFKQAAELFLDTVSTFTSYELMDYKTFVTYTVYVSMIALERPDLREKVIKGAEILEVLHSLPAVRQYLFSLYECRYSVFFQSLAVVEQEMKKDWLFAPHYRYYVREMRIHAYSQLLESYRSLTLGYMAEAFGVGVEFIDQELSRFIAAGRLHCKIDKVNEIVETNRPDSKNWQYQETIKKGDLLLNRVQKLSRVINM

Assay [8] concerns the target T8, HeLa cell extract proteins (Homo sapiens, UniProt P12277).
T8 construct: endogenous in cells; host or cells: HeLa cell extract

The mark [9] stands for this setting: HeLa, protein FN3KRP (KETOSAMINE-3-KINASE).
Setting [10] is: HeLa, protein CKB (CREATINE KINASE B-TYPE.).

Read-outs that look alike come from different tables or passages of the source.

T8 sequence (P12277 whole entry): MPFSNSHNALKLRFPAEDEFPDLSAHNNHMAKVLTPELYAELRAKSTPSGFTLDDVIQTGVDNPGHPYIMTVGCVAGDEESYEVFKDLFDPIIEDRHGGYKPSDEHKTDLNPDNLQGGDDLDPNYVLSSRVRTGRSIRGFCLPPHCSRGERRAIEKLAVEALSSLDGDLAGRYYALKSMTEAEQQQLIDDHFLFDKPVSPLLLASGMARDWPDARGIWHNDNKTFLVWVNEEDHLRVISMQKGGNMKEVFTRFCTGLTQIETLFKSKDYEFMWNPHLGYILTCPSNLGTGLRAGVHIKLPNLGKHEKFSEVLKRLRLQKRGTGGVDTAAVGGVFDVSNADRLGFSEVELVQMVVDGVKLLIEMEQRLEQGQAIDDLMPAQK

Consider `Nc1nc2c(c(=O)[nH]1)N(C=O)C(CNc1ccc(C(=O)N[C@@H](CCC(=O)O)C(=O)O)cc1)CN2` (some centres unmarked) [LEU, leucovorin], for which the “fold changes relative to vehicle control” value in assay [1] (HeLa, captured protein CSTF1) turned out to be 1; in assay [2] (HeLa, protein PHB), 0.95; in assay [3] (HeLa, protein PSMB6) it was 1.01; in assay [4] (HeLa, protein HSPA4), 0.97; in assay [5] (setting [9]), 1.08; in assay [6] (HeLa, captured protein EEF1A1), 1.01. The “fold changes relative to vehicle control” value in assay [7] (HeLa, protein PSMD6) is on record as 0.77; in assay [8] (HeLa, protein CKB), 1.01.

For the compound `Nc1nc2[nH]cc(CCc3ccc(C(=O)N[C@@H](CCC(=O)O)C(=O)O)cc3)c2c(=O)[nH]1` [PTX, pemetrexed], the “fold changes relative to vehicle control” value in assay [1] is recorded as 0.99; in assay [2], 0.92; in assay [3], 1.1; in assay [4], 1.09; in assay [5] it was 1.01; in assay [6], 0.93. Besides, the results for the “fold changes relative to vehicle control” value in assay [7] and in assay [8] were 0.69 and 1.11, respectively.

For `CCCCCCOc1ccc(Cc2cnc(N)nc2N)cc1` [compound 1], the “fold changes relative to vehicle control” value is 1.05 in assay [1] (HeLa, protein CSTF1); 1.06 in assay [2] (protein PHB, HeLa); 1.31 in assay [3] (protein PSMB6, HeLa); 1.19 in assay [4] (protein HSPA4, HeLa); 1 in assay [5] (protein FN3KRP, HeLa); 1.17 in assay [6] (protein EEF1A1, HeLa). Further, the “fold changes relative to vehicle control” value in assay [7] (protein PSMD6, HeLa) turned out to be 0.94; in assay [8] (setting [10]), 1.55 fold.

Consider `CCCCCCOc1cccc(Cc2cnc(N)nc2N)c1` [compound 2], for which the “fold changes relative to vehicle control” value stood at 0.99 in assay [1] (HeLa, protein CSTF1); 0.99 in assay [2] (protein PHB, HeLa); 1.36 in assay [3] (protein PSMB6, HeLa); 2.1 in assay [4] (protein HSPA4, HeLa); 0.9 in assay [5] (protein FN3KRP, HeLa); 1.47 in assay [6] (protein EEF1A1, HeLa). Moreover, the “fold changes relative to vehicle control” value amounted to 1.64 in assay [7] (protein PSMD6, HeLa) and 2.55 fold in assay [8] (setting [10]).

Regarding `Nc1nc2cccc(-c3ccccc3)c2n1Cc1ccc(Cl)c(Cl)c1` [compound 3], the “fold changes relative to vehicle control” value in assay [1] (HeLa, protein CSTF1) was 0.98; in assay [2] (protein PHB, HeLa), 0.93; in assay [3] (protein PSMB6, HeLa), 1.09; in assay [4] (protein HSPA4, HeLa), 0.92; in assay [5] (protein FN3KRP, HeLa) it was 1.04; in assay [6] (protein EEF1A1, HeLa) it was 0.97. Besides, the “fold changes relative to vehicle control” value in assay [7] (protein PSMD6, HeLa) was determined as 1.72; in assay [8] (setting [10]), 0.92 fold.

Turning to `NCCOCCOCC(=O)Nc1nc2ncc(CNc3ccc(C(=O)NC(CCC(=O)O)C(=O)O)cc3)nc2c(=O)[nH]1` (centres unmarked) [compound 6], the “fold changes relative to vehicle control” value in assay [1] (HeLa, captured protein CSTF1) turned out to be 0.88; in assay [2] (HeLa, protein PHB), 0.99; in assay [3] (HeLa, protein PSMB6), 1.29; in assay [4] (HeLa, protein HSPA4), 1.26; in assay [5] (setting [9]), 0.85; in assay [6] (HeLa, captured protein EEF1A1), 0.99. Moreover, the “fold changes relative to vehicle control” value worked out at 0.89 in assay [7] (HeLa, protein PSMD6) and 1.23 in assay [8] (HeLa, protein CKB).

In the case of `NCCCNc1ccc(C(=O)NC(CCC(=O)O)C(=O)O)cc1` (centres unmarked) [compound 7], the “fold changes relative to vehicle control” value in assay [1] (HeLa, captured protein CSTF1) came out at 1.02; in assay [2] (HeLa, protein PHB) it was 0.96; in assay [3] (HeLa, protein PSMB6), 1.02; in assay [4] (HeLa, protein HSPA4) it was 0.92; in assay [5] (setting [9]) it was 1.07; in assay [6] (HeLa, captured protein EEF1A1) it was 0.93. Moreover, the “fold changes relative to vehicle control” value in assay [7] (HeLa, protein PSMD6) is 0.82; in assay [8] (HeLa, protein CKB), 0.93.
